Patent US4704384A, “Aziridinyl quinone antitumor agents” (priority 1981, dated 1987)
“And” between values parts separate entries of the source, which are not always exact repeats. Equal values may be shown once. “Also recorded” adds a separate entry of the source. Read-outs that look alike come from different tables or passages of the source.

Tests used:
[1] = tested on: lymphoid leukemia L1210; settings: cited from earlier work; for activity in L1210: prior testing
[2] = tested on: lymphoid leukemia L1210; settings: for survivors, IP L1210: parentheses, per 6
Source text: ^b Ip tumor implantation, ip QD19 treatment schedule.
^e ILS = [(treated survival + control survival) × 100%] - 100%
The L1210, P388 and B16 test systems described in Table II utilize intraperitoneal (IP) tumor implantation and IP drug treatment while the Lewis lung system employs subcutaneous tumor implantation and IP treatment. All three CNS tumor models (Table III) use intracerebral (IC) tumor implantation and IP treatment.
Aqueous saline solution (0.9%) was used as the drug vehicle. Normally, five doses were employed per experiment with the top dose chosen to produce toxicity. The lower doses were 50% of each preceeding dose.
Consistent with NCI antitumor test protocols, intraperitoneal (IP) administration of the drug was employed with all five tumor systems investigated. Tumor implantation was IP in the systems designated IP leukemia L1210 and P388 as well as B16 melanoma. Intracerebral (IC) tumor implantation was utilized in the IC L1210 and ependymoblastoma tumor systems.

[3] = tested on: ependymoblastoma; type: in vivo, murine; settings: for OD: QD1-5, Table X; for ILS: QD1-5, at OD; for ILS / animals alive per 6: Table X; for animals alive per 6: QD1-5, day 60, at OD; for survivors, EM: parentheses, per 6
Source text: ^c Ic tumor implantation, ip QD15 treatment schedule.
(§1) A third IC tumor model, the ependymoblastoma system, was also studied. This system requires intracerebral implantation of a solid tumor fragment while the IC L1210 and IC P388 systems utilize IC inoculated ascites tumor fluid. All three use IP drug treatment however. […] Cures (survivors from the group of six mice on the last day of the experiment) are indicated.

[4] = tested on: lymphocytic leukemia P388; type: in vivo, murine; settings: for OD: QD1-9, Table IX; for ILS: QD1-9, at OD; for ILS / animals alive per 6: Table IX; for animals alive per 6: QD1-9, day 30, at OD; for survivors, P388: Table XI, parentheses, per 6
[5] = tested on: B16 melanocarcinoma; type: in vivo, murine; settings: for ILS: QD1-9, at OD, Table IX; for OD: QD1-9, Table IX
[6] = tested on: lymphoid leukemia L1210; type: in vivo, murine
Source text: as §1

[7] = reported; Europe / Japan; cited from earlier work
[8] = Day 1 only (1 injection), Table VIII
[9] = QD1-9 (9 injections), Table VIII
[10] = QD1-9, day 30, at OD, Table VIII
[11] = Day 1 only, day 30, at OD, Table VIII

## O=C1C(N2CC2)=C(N2CC2)C(=O)C(N2CC2)=C1N1CC1 [tetraaziridinyl derivative, reference compound]
[1]; L1210 leukemia, earlier evaluation
  ILS: 39%

## COC1=C(Br)C(=O)C(OC)=C(Br)C1=O [Compound 14, 2,5-dibromo-3,6-dimethoxy-1,4-benzoquinone]
[1]
  activity in L1210: inactive

## O=C1C(Cl)=C(N2CC2)C(=O)C(Cl)=C1N1CC1 [Compound 4, 2,5-dichloro-3,6-diaziridinyl-1,4-benzoquinone]
[1]
  activity in L1210: inactive

## CNC1=C(N2CC2)C(=O)C(NC)=C(N2CC2)C1=O [Compound 34]
[2]; [8]
  OD: 0.7 mg/kg/injection
[2]; Q4D (day 1,5,9), Table VIII
  OD: 0.8 mg/kg/injection and 0.4 mg/kg/injection
[2]; Q4D, at OD, Table VIII
  ILS: 57% and 56%
[2]; [9]
  OD: 0.2 mg/kg/injection
[2]; QD1-9, at OD, Table VIII
  ILS: 73% and 61%
[2]; [10]
  animals alive per 6: 1
[3]
  activity in ependymoblastoma: among the most active materials
  OD: 0.2 mg/kg/injection and 0.4 mg/kg/injection
  ILS: 219% and 218%
  animals alive per 6: 5 and 4
[3]; Table XI
  survivors, EM: 5
[4]
  OD: 0.2 mg/kg/injection and 0.1 mg/kg/injection
  ILS: 95% and 69%
[5]
  activity in B16 melanoma: approached minimal reproducible activity
  ILS: 39% and 29%
[6]
  activity in IC L1210: most active; also recorded: significant activity
[6]; QD1-9, Table X
  OD: 0.4 mg/kg/injection and 0.2 mg/kg/injection
[6]; QD1-9, at OD, Table X
  ILS: 68% and 60%

## CN(C)C1=C(N2CC2)C(=O)C(N(C)C)=C(N2CC2)C1=O [Compound 41, 2,5-DIAZIRIDINYL-3,6-BIS(DIMETHYLAMINO)-1,4-BENZOQUINONE]
[2]; [8]
  OD: 1.5 mg/kg/injection
[2]; Day 1 only, at OD, Table VIII
  ILS: 21% and 15%
[2]; Q4D (day 1,5,9), Table VIII
  OD: 3.0 mg/kg/injection
[2]; Q4D, at OD, Table VIII
  ILS: 120% and 73%
[2]; Q4D, day 30, at OD, Table VIII
  animals alive per 6: 1
[2]; Table XI
  survivors, IP L1210: 1
[3]
  activity in ependymoblastoma: among the most active materials
  OD: 1.0 mg/kg/injection and 0.5 mg/kg/injection
  ILS: 215% and 190%
  animals alive per 6: 5 and 4
[3]; Table XI
  survivors, EM: 5
[4]
  OD: 1.0 mg/kg/injection and 0.5 mg/kg/injection
  ILS: 74% and 37%
[5]
  OD: 0.2 mg/kg/injection
  ILS: 16% and 12%
[6]
  activity in IC L1210: most active; also recorded: significant activity
[6]; Q4D(1,5,9), Table X
  OD: 3.0 mg/kg/injection
[6]; Q4D(1,5,9), at OD, Table X
  ILS: 72% and 56%

## O=C1C(N2CC2)=C(N2CCCC(O)C2)C(=O)C(N2CC2)=C1N1CCCC(O)C1 (stereo not drawn) [Compound 45]
[2]; Q4D (day 1,5,9), Table VIII
  OD: 6.0 mg/kg/injection and 4.0 mg/kg/injection
[2]; Q4D, at OD, Table VIII
  ILS: 104% and 84%
[2]; Q4D, day 30, at OD, Table VIII
  animals alive per 6: 2
[2]; [9]
  OD: 3.0 mg/kg/injection
[2]; QD1-9, at OD, Table VIII
  ILS: 59% and 44%
[3]
  ILS: 64% and 48%
[4]
  OD: 1.0 mg/kg/injection
  ILS: 95% and 78%
[5]
  activity in B16 melanoma: approached minimal reproducible activity
  OD: 1.0 mg/kg/injection
  ILS: 40% and 37%
[6]; Q4D(1,5,9), Table X
  OD: 8.0 mg/kg/injection and 6.0 mg/kg/injection

## O=C1C(NCC(O)CO)=C(N2CC2)C(=O)C(NCC(O)CO)=C1N1CC1 (stereo not drawn) [Compound 39]
[2]
  activity in IP L1210: Excellent activity; also recorded: produced cures; also recorded: probably the most active compound in the IP ascites systems
[2]; [8]
  OD: 4.0 mg/kg/injection and 2.0 mg/kg/injection
[2]; Day 1 only, at OD, Table VIII
  ILS: 89%
[2]; [11]
  animals alive per 6: 4
[2]; Q4D (day 1,5,9), Table VIII
  OD: 4.0 mg/kg/injection and 8.0 mg/kg/injection
[2]; Q4D, at OD, Table VIII
  ILS: 90% and 79%
[2]; [9]
  OD: 4.0 mg/kg/injection and 2.0 mg/kg/injection
[2]; QD1-9, at OD, Table VIII
  ILS: 206%
[2]; Table XI
  survivors, IP L1210: 5
[3]
  activity in ependymoblastoma: moderate to good EM activity
  ILS: 99% and 53%
  animals alive per 6: 1
[3]; Table XI, outstanding activity
  ILS (%) EM: 99%
[3]; Table XI
  survivors, EM: 1
[3]; repeat test
  survivors, EM: 6
[4]
  activity in IP P388: very active producing multiple cures
  OD: 4.0 mg/kg/injection
  ILS: 143%
  animals alive per 6: 6 and 4
  survivors, P388: 6
[5]
  activity in B16 melanoma: reproducibly active
  OD: 4.0 mg/kg/injection and 6.0 mg/kg/injection
  ILS: 50% and 42%
[6]
  activity in IC L1210: marginal IC L1210 activity
[6]; QD1-9, Table X
  OD: 4.0 mg/kg/injection
[6]; QD1-9, at OD, Table X
  ILS: 43% and 41%

## O=C1C=C(N2CC2)C(=O)C(N2CC2)=C1N1CC1 [Compound 29, Trenimon]
[7]
  clinical activity: Clinical activity has been reported

## NC1=C(Cl)C(=O)C(N)=C(Cl)C1=O [Compound 19]
[1]
  activity in L1210: inactive

## O=C1C(N2CCN(CCO)CC2)=C(N2CC2)C(=O)C(N2CCN(CCO)CC2)=C1N1CC1 [Compound 47]
[2]
  activity in IP L1210: produced cures; also recorded: superior
[2]; [8]
  OD: 4.0 mg/kg/injection
[2]; Q4D (day 1,5,9), Table VIII
  OD: 4.0 mg/kg/injection and 2.0 mg/kg/injection
[2]; Q4D, at OD, Table VIII
  ILS: 180%
[2]; Q4D, day 30, at OD, Table VIII
  animals alive per 6: 3 and 4
[2]; [9]
  OD: 1.0 mg/kg/injection and 0.5 mg/kg/injection
[2]; QD1-9, day 5, at OD, Table VIII
  T-C: -1.7 grams
[2]; [10]
  animals alive per 6: 1
[2]; Table XI, outstanding activity
  ILS (%) IP L1210: 180%
[2]; Table XI
  survivors, IP L1210: 3
[3]
  OD: 1.0 mg/kg/injection
  ILS: 75%
[4]
  activity in IP P388: very active producing multiple cures
  OD: 0.5 mg/kg/injection and 1.0 mg/kg/injection
  ILS: 143%
  animals alive per 6: 3 and 6
  survivors, P388: 3
[5]
  ILS: 22%
[6]
  activity in IC L1210: marginal IC L1210 activity
[6]; QD1-9, Table X
  OD: 2.0 mg/kg/injection and 1.5 mg/kg/injection
[6]; QD1-9, at OD, Table X
  ILS: 43% and 41%
[6]; QD1-9, day 5, at OD, Table X
  T-C: -1.4 grams

## CC(=O)NC1=C(N2CC2)C(=O)C(NC(C)=O)=C(N2CC2)C1=O [Compound 27, reference compound]
[1]
  activity in L1210: intraperitoneal (IP) leukemia L1210 activity

## COC1=C(N2CC2)C(=O)C(OC)=C(N2CC2)C1=O [Compound 28, reference compound]
[1]
  activity in L1210: intraperitoneal (IP) leukemia L1210 activity

## CC(=O)NC1=C(Cl)C(=O)C(NC(C)=O)=C(Cl)C1=O [Compound 20, 2,5-dichloro-3,5-acetylamino-1,4-benzoquinone]
[1]
  activity in L1210: inactive

## O=C1C(NCCO)=C(N2CC2)C(=O)C(NCCO)=C1N1CC1 [Compound 38]
[2]
  activity in IP L1210: Excellent activity; also recorded: produced cures; also recorded: superior
[2]; [8]
  OD: 1.5 mg/kg/injection
[2]; Day 1 only, at OD, Table VIII
  ILS: 175% and 119%
[2]; [11]
  animals alive per 6: 5 and 3
[2]; Q4D (day 1,5,9), Table VIII
  OD: 0.7 mg/kg/injection
[2]; Q4D, at OD, Table VIII
  ILS: 131% and 70%
[2]; [9]
  OD: 0.7 mg/kg/injection
[2]; QD1-9, at OD, Table VIII
  ILS: 205% and 134%
[2]; [10]
  animals alive per 6: 2 and 3
[2]; Table XI
  survivors, IP L1210: 2
[2]; chronic schedule
  maximum ILS: > 200%
[3]
  OD: 1.5 mg/kg/injection
  ILS: 83% and 70%
[4]
  activity in IP P388: very active producing multiple cures
  OD: 0.4 mg/kg/injection
  ILS: 175% and 160%
  animals alive per 6: 3 and 2
  survivors, P388: 3
[5]
  activity in B16 melanoma: reproducibly active
  OD: 0.4 mg/kg/injection
  ILS: 61% and 51%
[6]
  activity in IC L1210: marginal IC L1210 activity
[6]; QD1-9, Table X
  OD: 0.75 mg/kg/injection
[6]; QD1-9, at OD, Table X
  ILS: 57% and 48%

## O=C1C(Cl)=C(Cl)C(=O)C(Cl)=C1Cl [chloranil, tetrachlorobenzoquinone, reference compound]
[1]
  activity in L1210: inactive
